According to patent US8802678B2, “Carbonylated (aza) cyclohexanes as dopamine D3 receptor ligands” (Bioprojet, priority 2006, dated 2014):

| SMILES | melting point [°C] |
| --- | --- |
| CC(C)(C)OC(=O)CN1CCC(CCN2CCN(c3cccc(C(F)(F)F)c3)CC2)CC1.Cl.Cl | 245 |
| Cl.N#CCC(=O)N[C@H]1CC[C@H](CCN2CCN(c3ccccc3)CC2)CC1 | 243 |
| Cl.N#CCC(=O)N[C@H]1CC[C@@H](CCN2CCN(c3ccccc3F)CC2)CC1 | 153 |
| COCC(=O)N1CCC(CCN2CCN(c3cccc(C(F)(F)F)c3)CC2)CC1.Cl | 150 |
| CC(C)Oc1cccc(N2CCN(CC[C@H]3CC[C@H](NC(=O)CC#N)CC3)CC2)c1.Cl | 191 |
| CC(=O)CN1CCC(CCN2CCN(c3cc(C#N)cc(C(F)(F)F)c3)CC2)CC1.Cl.Cl | 280 |
| N#CCC(=O)N[C@H]1CC[C@H](CCN2CC=C(c3cc(C(F)(F)F)cc(C(F)(F)F)c3)CC2)CC1 | 174 |
| CC(=O)CN1CCC(CCN2CCN(c3cccc(C)c3C#N)CC2)CC1.Cl.Cl | 215 |
| CC(=O)CN1CCC(CCN2CCN(c3cccc(C#N)c3)CC2)CC1.Cl.Cl | 250 |
| COc1ccc(C)c(N2CCN(CCC3CCN(CC(C)=O)CC3)CC2)c1.Cl.Cl | 283 |
| CCOC(=O)CN1CCC(CCN2CCN(c3cccc(C(F)(F)F)c3)CC2)CC1.Cl.Cl | 240 |
| CC(=O)CN1CCC(CCN2CC=C(c3cccc(C)c3C)CC2)CC1.Cl.Cl | 310 |
| CC(=O)CN1CCC(CCN2CCN(c3cccc(C)c3C)CC2)CC1.Cl.Cl | 290 |
| CC(=O)CN1CCC(CCN2CCN(c3ccccc3C)CC2)CC1.Cl.Cl | 289 |
| Cl.Cl.O=C(CN1CCC(CCN2CCN(c3cccc(C(F)(F)F)c3)CC2)CC1)c1ccc(F)cc1 | 265 |
| CC(=O)CN1CCC(CCN2CCN(c3cccc4c3CCCC4)CC2)CC1.Cl.Cl | 320 |
| CC(=O)CN1CCC(CCN2CCN(c3cccc(C(F)(F)F)c3F)CC2)CC1.Cl.Cl | 270 |
| CCc1cccc(C2=CCN(CC[C@H]3CC[C@H](NC(=O)CC#N)CC3)CC2)c1 | 158 |
| CCc1cccc(N2CCN(CCC3CCN(CC(C)=O)CC3)CC2)c1.Cl.Cl | 266 |
| CC(=O)CN1CCC(CCN2CCN(c3cccc(C)c3)CC2)CC1.Cl.Cl | 260 |
| CC(=O)CN1CCC(CCN2CCN(c3cccc(F)c3C)CC2)CC1.Cl.Cl | 317 |
| CC(=O)CN1CCC(CCN2CCN(c3cc(C(F)(F)F)cc(C(F)(F)F)c3)CC2)CC1.Cl.Cl | 260 |
| N#CCC(=O)N[C@H]1CC[C@H](CCN2CC=C(c3cccc(C(F)(F)F)c3F)CC2)CC1 | 171 |

| SMILES | melting point [°C] |
| --- | --- |
| COc1cccc(N2CCN(CCC3CCN(CC(C)=O)CC3)CC2)c1.Cl.Cl | 265 |
| CC(=O)CN1CCC(CCN2CCN(c3ccccc3C#N)CC2)CC1.Cl.Cl | 290 |
| CC(=O)CN1CCC(CCN2CCN(c3cccc(OC(F)(F)F)c3)CC2)CC1.Cl.Cl | 275 |
| CCc1ccccc1N1CCN(CCC2CCN(CC(C)=O)CC2)CC1.Cl.Cl | 291 |
| CC(=O)CN1CCC(CCN2CCN(c3cccc4c3CCC4)CC2)CC1.Cl.Cl | 295 |
| N#CCCCC(=O)N[C@H]1CC[C@H](CCN2CC=C(c3cccc(C(F)(F)F)c3F)CC2)CC1 | 130 |
| Cc1cc(C)cc(C2=CCN(CC[C@H]3CC[C@H](NC(=O)CC#N)CC3)CC2)c1 | 182 |
| CC(=O)CN1CCC(CCN2CCN(c3cc(C(C)(C)C)cc(C(C)(C)C)c3)CC2)CC1.Cl.Cl | 308 |
| Cc1cc(C)cc(C2=CCN(CC[C@H]3CC[C@H](NC(=O)CCCC#N)CC3)CC2)c1 | 166 |
| N#CCC(=O)N[C@H]1CC[C@@H](CCN2CC=C(c3ccc(F)cc3)CC2)CC1 | 147 |
| COCC(=O)N[C@H]1CC[C@H](CCN2CCN(c3cccc(C(F)(F)F)c3)CC2)CC1.Cl | 217 |
| CC(=O)CN1CCC(CCN2CCN(c3ccccc3C(C)C)CC2)CC1.Cl.Cl | 260 |
| Cl.N#CCCCC(=O)N[C@H]1CC[C@H](CCN2CCN(c3ccccc3C(F)(F)F)CC2)CC1 | 248 |
| CC(=O)CN1CCC(CCN2CCN(c3ccc(C)c(C(F)(F)F)c3)CC2)CC1.Cl.Cl | 325 |
| CC(=O)CN1CCC(CCN2CCN(c3ccc(F)cc3F)CC2)CC1.Cl.Cl | 260 |
| CC(=O)CN1CCC(CCN2CCN(c3ccc(F)cc3)CC2)CC1.Cl.Cl | 270 |
| CCOCC(=O)N[C@H]1CC[C@H](CCN2CC=C(c3ccc(Cl)cc3)CC2)CC1 | 149 |
| N#CCCCC(=O)N[C@H]1CC[C@H](CCN2CC=C(c3ccc(Cl)cc3)CC2)CC1 | 198 |
| N#CCCCC(=O)N[C@H]1CC[C@H](CCN2CC=C(c3ccc(F)cc3)CC2)CC1 | 180 |
| CCOCC(=O)N[C@H]1CC[C@H](CCN2CCN(c3cccc(C(F)(F)F)c3)CC2)CC1.Cl | 184 |
| O=C(N[C@H]1CC[C@H](CCN2CC=C(c3ccccc3)CC2)CC1)C1=CCCC1 | 202 |
| CC(=O)CN1CCC(CCN2CCN(c3ccc(C)c(C)c3)CC2)CC1.Cl.Cl | 275 |
| COc1c(Cl)cccc1N1CCN(CCC2CCN(CC(C)=O)CC2)CC1.Cl.Cl | 270 |

| SMILES | melting point [°C] |
| --- | --- |
| N#CCC(=O)N[C@H]1CC[C@H](CCN2CC=C(c3ccc(C(F)(F)F)cc3)CC2)CC1 | 217 |
| O=C(N[C@H]1CC[C@H](CCN2CC=C(c3ccccc3F)CC2)CC1)C1=CCCC1 | 192 |
| CC(=O)CN1CCC(CCN2CCN(c3cccc(C(F)F)c3)CC2)CC1.Cl.Cl | 265 |
| CC(=O)CN1CCC(CCN2CCN(c3cccc4c3OCO4)CC2)CC1.Cl.Cl | 264 |
| N#CCCCC(=O)N[C@H]1CC[C@H](CCN2CC=C(c3cccc(C(F)(F)F)c3)CC2)CC1 | 102 |
| CC(=O)CN1CCC(CCN2CCN(c3cc(C)ccc3F)CC2)CC1.Cl.Cl | 275 |
| CC(=O)CC1CCC(CCN2CCN(c3cccc(C(F)(F)F)c3)CC2)CC1.Cl (stereo not shown) | 160 |
| CC(=O)CN1CCC(CCN2CCN(c3cc(C(C)(C)C)nc(C(C)(C)C)n3)CC2)CC1.Cl.Cl | 310 |
| CC(=O)CN1CCC(CCN2CCN(c3cccc(C(=O)C(C)C)c3)CC2)CC1.Cl.Cl | 250 |
| Cl.N#CCC(=O)N1CCC(CCN2CCN(c3cccc4c3CCC4)CC2)CC1 | 210 |
| CC(=O)C(=O)N1CCC(CCN2CCN(c3cccc(Cl)c3Cl)CC2)CC1.Cl | 244 |
| Cl.N#CCC(=O)N1CCC(CCN2CCN(c3cccc(Cl)c3Cl)CC2)CC1 | 228 |
| CCOc1ccccc1N1CCN(CCC2CCN(CC(C)=O)CC2)CC1.Cl.Cl | 271 |
| Cl.NC(=O)CCC(=O)N1CCC(CCN2CCN(c3cccc4c3CCC4)CC2)CC1 | 137 |
| CCC(=O)C(=O)N1CCC(CCN2CCN(c3cccc4c3CCC4)CC2)CC1.Cl | 202 |
| COc1ccc(OC)c(N2CCN(CCC3CCN(CC(C)=O)CC3)CC2)c1.Cl.Cl | 268 |
| COc1ccc(C)cc1N1CCN(CCC2CCN(CC(C)=O)CC2)CC1.Cl.Cl | 260 |
| CC(=O)CN1CCC(CCN2CCN(c3cc(Cl)cc(C(F)(F)F)c3)CC2)CC1.Cl.Cl | 289 |
| CC(=O)CN1CCC(CCN2CC=C(c3cc(C(F)(F)F)ccc3F)CC2)CC1.Cl.Cl | 282 |
| N#CCC(=O)N[C@H]1CC[C@H](CCN2CC=C(c3cc(C(F)(F)F)ccc3F)CC2)CC1 | 168 |
| CC(=O)CN1CCC(CCN2CCN(c3cccc(OC(C)C)c3)CC2)CC1.Cl.Cl | 237 |
| CC(=O)CN1CCC(CCN2CCN(c3cccc(C(C)(C)C)c3)CC2)CC1.Cl.Cl | 257 |
| CCCOCC(=O)N[C@H]1CC[C@H](CCN2CCN(c3cc(C(F)(F)F)ccc3F)CC2)CC1.Cl | 240 |

| SMILES | melting point [°C] |
| --- | --- |
| CC(=O)CN1CCC(CCN2CC=C(c3cccc(C#N)c3)CC2)CC1 | 94 |
| N#CCC(=O)N[C@H]1CC[C@H](CCN2CC=C(c3cccc(C#N)c3)CC2)CC1 | 185 |
| COCCCC(=O)N[C@H]1CC[C@H](CCN2CC=C(c3cccc(C#N)c3)CC2)CC1 | 178 |
| CC(=O)CN1CCC(CCN2CCN(c3cc(F)c(F)c(F)c3F)CC2)CC1.Cl.Cl | 235 |
| CC(=O)CN1CCC(CCN2CCN(c3cc(C(F)(F)F)ccc3Cl)CC2)CC1.Cl.Cl | 299 |
| CC(=O)CN1CCC(CCN2CCN(c3cc(F)c(C(F)(F)F)c(F)c3)CC2)CC1.Cl.Cl | 80 |
| CC(=O)CN1CCC(CCN2CCN(c3cc(C(F)(F)F)nc(C(C)(C)C)n3)CC2)CC1.Cl.Cl.Cl | 287 |
| CC(=O)CN1CCC(CCN2CCN(c3ccc(Cl)cc3Cl)CC2)CC1.Cl.Cl | 283 |
| N#CCCCC(=O)N[C@H]1CC[C@H](CCN2CC=C(c3cc(C(F)(F)F)ccc3F)CC2)CC1 | 153 |
| COCCCC(=O)N[C@H]1CC[C@H](CCN2CC=C(c3cc(C(F)(F)F)ccc3F)CC2)CC1 | 164 |
| CC(=O)CN1CCC(CCN2CCN(c3cc(C)ccc3C)CC2)CC1.Cl.Cl | 350 |
| CC(=O)CN1CCC(CCN2CCN(c3cc(C)cc(F)c3)CC2)CC1.Cl.Cl | 273 |
| Cl.N#CCCC(=O)N1CCC(CCN2CC=C(c3cc(C(F)(F)F)ccc3F)CC2)CC1 | 150 |
| CC(=O)CN1CCC(CCN2CCN(c3ccc(F)c(C)c3)CC2)CC1.Cl.Cl | 258 |
| CCc1ccccc1C1=CCN(CCC2CCN(CC(C)=O)CC2)CC1.Cl.Cl | 316 |
| Cl.O=C(CCC(F)(F)F)N1CCC(CCN2CCN(c3cccc4c3CCC4)CC2)CC1 | 219 |
| CCc1ccccc1C1=CCN(CC[C@H]2CC[C@H](NC(=O)CCCC#N)CC2)CC1 | 120 |
| Cc1ccccc1C1=CCN(CC[C@H]2CC[C@H](NC(=O)CC#N)CC2)CC1 | 166 |
| CC(=O)CN1CCC(CCN2CC=C(c3ccccc3C)CC2)CC1.Cl.Cl | 292 |
| CC(=O)CN1CCC(CCN2CCN(c3cccc(CC(C)C)c3)CC2)CC1.Cl.Cl | 240 |
| COCCCC(=O)N[C@H]1CC[C@H](CCN2CC=C(c3ccc(F)cc3)CC2)CC1 | 201 |
| N#CCC(=O)N[C@H]1CC[C@H](CCN2CC=C(c3cccc(C(F)(F)F)c3)CC2)CC1 | 149 |
